Assay type in all cases: cell-based
In assay [1] the test system is human neutrophils. Put plainly: Neutrophil migration (chemotaxis) to serum-treated glucan. The procedure:
This ability was measured by comparing the migratory capacity of human neutrophils to parent medium molecular weight (MMW) yeast β-glucan versus one of its derivatives, BT-1222. […] In contrast, the migration of neutrophils to MMW β-glucan or BT-1222 was 3.1 fold and 2.8 fold over medium alone, respectively.
Heparinized peripheral blood was obtained from healthy volunteers, and neutrophils were isolated by density gradient centrifugation with Ficoll-Paque followed by 3% […] sedimentation. Residual erythrocytes were removed by hypotonic lysis. Neutrophils were resuspended at 200,000 cells/ml in RPMI with 3% autologous serum (AS). MMW (3.3 mg/mL), BT-1222 (3.3 mg/mL) and PBS control were mixed with AS in 1:1 ratio and placed in a 37° C. water bath for 30 minutes. After incubation, Imprime and benzylamine-Imprime were diluted in RPMI to achieve 100, 50, 25, and 10 μg/ml concentrations with final concentration of serum being 3%. PBS control was diluted in a similar manner. […] The plate was placed in 37° C. incubator for 1 hour, lysed with 10 μl Cell-titer glo and read for luminescence on the M5 plate reader. Fold over media migration (chemotaxis) was calculated by dividing the RLU (relative luminescence units) for the treatment groups over migration to media (chemokinesis).

In assay [2] the test system is human neutrophils. Put plainly: iC3b deposition on neutrophils (flow cytometry). The procedure:
This ability was evaluated by comparing the levels of iC3b complement fragment detected on human neutrophils with the derivative versus parent β-glucan-bound.
Enriched neutrophils were resuspended at 1×10^6 cells/mL in RPMI 1640 supplemented with 10% serum. The parent or the derivatized glucans at 200, μg/mL hexose concentration were added to neutrophils and incubated in a 37° C., 5% C02 humidified incubator for 2 hr. After incubation, cells were washed twice with FACS buffer (HBSS supplemented with 1% FBS and 0.1% sodium azide) to remove any unbound β-glucan, stained with a neo-epitope specific anti-iC3b Ab and PE-conjugated goat anti-mouse IgG and subsequently analyzed by flow cytometry.
Table 1 below lists the fold change of mean fluorescence intensity (MFI) values of iC3b staining on neutrophils treated with each of the parent or derivatized glucans over that of PBS control-treated cells.
For orientation: A flow cytometer gives signals particle by particle.

In assay [3] the test system is human neutrophils. Nature of the assay: β-glucan binding on neutrophils (BfD IV staining, flow cytometry). As for the experimental part: This ability was evaluated by comparing the levels of neutrophil-bound parent versus the derivatives of β-glucans detected by BfD IV, a monoclonal antibody (MAb) specific for β-1,3/1,6 glucans. […] Table 2 lists the fold change of MFI values of BfD IV staining on neutrophils treated with each of the parent and derivatized glucans over that of PBS control-treated cells.
Enriched neutrophils were resuspended at 1×10^6 cells/mL in RPMI 1640 supplemented with 10% serum. The parent or the derivatized glucans at 200, μg/mL hexose concentration were added to neutrophils and incubated in a 37° C., 5% CO2 humidified incubator for 2 hr. After incubation, cells were washed twice with FACS buffer (HBSS supplemented with 1% FBS and 0.1% sodium azide) to remove any unbound β-glucan, and subsequently treated with Fc block. Post Fc block step, cells were stained with the BfD IV Ab for 30 min at 4° C. and washed twice with cold FACS buffer. Cells were then incubated with FITC-conjugated F(ab′)2 goat anti-mouse IgM for 30 min at 4° C. and washed once with cold FACS buffer before fixing with 1% paraformaldehyde. Events were collected on a LSRII flow cytometer and analysis was performed using FlowJo software.
Table 2 summarizes the fold change of MFI values of BfD IV staining on neutrophils treated with each of the parent, or derivatized β-glucans, over that of PBS control-treated cells.

Assay [4] deals with human peripheral blood mononuclear cells. Put plainly: Oxidative burst (superoxide production by cytochrome c reduction) on immobilized glucan. Conditions: human PBMCs. The procedure: Dilutions of MMW and BT-1222 were prepared out-of-plate in water. Subsequently, 50 μL of each dilution were added to triplicate wells of Costar® Universal-Bind™ microtiter plates. For immobilizing the glucans on the plate, the plate was irradiated for 5 min in a UV cross-linker, and then incubated at 50° C. until completely dried. After checking for complete dryness of the plate, it was cross-linked again under UV for 5 minutes. The microtiter plates were then blocked with 0.25% bovine serum albumin (BSA) in DPBS for 30 min at room temperature. Each microtiter plate included positive control wells and negative control wells to which only water with no polysaccharide was added at this point.
The oxidative burst response was then determined by standard methods by measuring SO production through the reduction of cytochrome c. Peripheral blood mononuclear cells (PBMCs) were resuspended in HBSS/HEPES buffer with 0.25% BSA at a concentration of 4×10^6 cells/mL and maintained at 37° C. until added to the plate. A 100 μL aliquot of 200 μM bovine cytochrome c solution in HBSS/HEPES buffer previously incubated at 37° C. was added to each well. Approximately 4.0×10^5 cells, in a 100 μL volume, were subsequently added to each well of the microtiter plate. The negative assay control consisting of cells and cytochrome c was added in the uncoated negative control wells. As a positive assay control, just before reading the plate, phorbol myristate acetate (PMA) at 100 ng/mL was added as the stimulus to the cells in the uncoated positive control wells to achieve a final concentration of 50 ng/mL. The plate was maintained at 37° C., and optical density (OD) in each well was read at 550 nm every 15 min for 120 min using a spectrophotometer. For each concentration of polysaccharide, the OD change (ΔOD) was calculated from the time of minimum response (1 min) to the time of maximum response (120 mins). The rate of SO production (nmoles of SO/10^6 cells/120 mins) was calculated from the ΔOD value and the extinction coefficient of cytochrome c (21.1×103 M-1 cm-1). […]

The mark [5] stands for this setting: 200 μg/mL hexose concentration, 2 hr, 37° C., 10% serum.

In the case of “Benzyl Amine MMW Yeast Glucan Analog [BT-1222]”, the “migration of neutrophils compared with parent MMW” value in assay [1] (FIG. 2) was “comparable”. Also, in assay [1] (glucan pre-incubated with autologous serum, 1 hour at 37° C.), the “migration of neutrophils, fold over medium alone” value is given as 2.8 fold. In addition, in assay [2] (setting [5]), the “Approximate Fold Increase/Decrease in MFI over Parent Compound (iC3b)” value was 3.0 fold and the “MFI(ic3b) compound/MFI(ic3b) PBS” value amounted to 5.9 ± 2.2. For the same substance, the “staining of iC3b on glucan-bound neutrophils compared with MMW-bound neutrophils” value in assay [2] (FIG. 3 histogram) is reported as “higher”. Besides, in assay [3] (setting [5]), the “Approximate Fold Increase/Decrease in MFI over Parent Compound (BfD IV)” value is recorded as 3.1 fold and the “MFI(BID IV) compound/MFI(BID IV) PBS” value is given as 13.2 ± 3.6. In assay [3] (histogram), the “staining of BfD IV on glucan-bound neutrophils compared with MMW-bound neutrophils” value is reported as “higher”. Besides, the “rate of superoxide production in comparison to MMW” value in assay [4] (at each concentration tested) was “higher”. In assay [4] (plate-immobilized glucan, 120 min), the “oxidative burst as measured by rate of superoxide production” value is on record as “dose dependent oxidative burst”.
Take “De-Branched Scleroglucan Analog [BT-1322]”: the “oxidative burst compared with parent scleroglucan and parent MMW yeast β-glucan” value in assay [4] (FIG. 5) is given as “higher oxidative burst”.

The values above are taken from US20140228543A1, “MODIFIED AND DERIVATIZED ß-GLUCAN COMPOUNDS, COMPOSITIONS, AND METHODS” (Biothera, Inc., priority 2011, published 2014).
